Experimental data as given in article doi:10.1101/454710v1 (biorxiv, 2018).

Assays:
Assay in all cases: whole-cell patch clamp
Format in all cases: cell-based
Conditions in all cases: agonist; pH 7.4
[1] = tested on: heteromeric α2β GlyR
[2] = tested on: homomeric α3 GlyR
[3] = tested on: heteromeric α3β GlyR
[4] = tested on: homomeric α2 GlyR

Question: What does the source list for `NCC(=O)O` [glycine]?
Answer: EC50 [1]: 91 µM; EC50 [2]: 166 µM; EC50 [3]: 395 µM; EC50 [4]: 99 µM
